compound: Cc1nc(C(=O)NCC(=O)O)c(O)c2ccc(Oc3ccccc3)cc12 [FG-4592] + Cc1nc(Nc2ncc(C(=O)Nc3c(C)cccc3Cl)s2)cc(N2CCN(CCO)CC2)n1 [Dasatinib] (partner 0.075 µM); assay: relative viability (nuclei count vs DMSO), 5 days (fraction); higher = more cells survive; settings: first compound 8 µM
Outline: (§1)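 Relative viability divides the nuclei count in treated wells by that in vehicle wells. Lung cancer cell lines were seeded in 1536-well plates, dosed by pin tool the next day, and fixed and stained after 5 days in one step with final 0.05% Triton X-100, 1% formaldehyde and 1 ug/ml Hoechst. Dosing was a single drug or a fixed anchor-drug dose plus five library-drug doses (not always all listed) in √10 steps, and values are medians of duplicate plates imaged at 4×.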

Going from H3255 to COR-L23, the relative viability falls from 0.48 to 0.409.

Going from COR-L 105 to LOU-NH91, the relative viability rises from 0.286 to 0.533.

First: ChaGo-K-1
Second: NCI-H2170
The relative viability of the first is higher: 0.592 for the first, 0.497 for the second.

Going from NCI-H2405 to SW 900, the relative viability rises from 0.204 to 0.461.

Going from NCI-H1395 to NCI-H1792, the relative viability rises from 0.365 to 0.748.

Compared with NCI-H1793, NCI-H1563 is higher in relative viability: 0.328 for the first, 0.44 for the second.

First: NCI-H1944
Second: ABC-1
The relative viability of the first is lower: 0.202 for the first, 0.463 for the second.

Cell Line NCI-H358 has a relative viability of 0.156.

compound: Cc1nc(C(=O)NCC(=O)O)c(O)c2ccc(Oc3ccccc3)cc12 [FG-4592] + CC(C)C[C@H](NC(=O)[C@H](Cc1ccccc1)NC(=O)c1cnccn1)B(O)O [Bortezomib] (partner 0.002 µM); assay: as above; settings: first compound 0.08 µM
Outline: as §1

First: NCI-H727
Second: NCI-H1650
The relative viability of the first is higher: 0.738 for the first, 0.207 for the second.

First: EBC-1
Second: NCI-H1703
The relative viability of the first is higher: 0.63 for the first, 0.334 for the second.

First: NCI-H1993
Second: SW 1573
The relative viability of the first is higher: 1.12 for the first, 1.04 for the second.

Compared with NCI-H838, LCLC-103H is higher in relative viability: 0.893 for the first, 1.04 for the second.

Compared with NCI-H520, NCI-H2126 is higher in relative viability: 0.53 for the first, 1.09 for the second.

Going from EMC-BAC-2 to NCI-H2085, the relative viability falls from 1.04 to 0.998.

Going from Calu-6 to HCC-366, the relative viability falls from 0.98 to 0.9.

Going from NCI-H1666 to NCI-H596, the relative viability rises from 0.839 to 0.919.

First: NCI-H2087
Second: H3255
The relative viability of the first is lower: 0.775 for the first, 0.816 for the second.

Going from COR-L23 to COR-L 105, the relative viability falls from 1.03 to 0.75.

First: IA-LM
Second: LOU-NH91
The relative viability of the first is higher: 0.914 for the first, 0.509 for the second.

Compared with ChaGo-K-1, NCI-H2405 is lower in relative viability: 1.04 for the first, 0.906 for the second.

First: HCC-44
Second: NCI-H1299
The relative viability of the first is lower: 0.817 for the first, 1.07 for the second.

Going from NCI-H1792 to NCI-H1563, the relative viability falls from 0.985 to 0.647.

ABC-1 was tested, and the relative viability was 0.365.

same assay, conditions: first compound 0.253 µM

Going from NCI-H727 to NCI-H1650, the relative viability falls from 0.698 to 0.238.

First: EBC-1
Second: NCI-H1703
The relative viability of the first is higher: 0.531 for the first, 0.327 for the second.

First: NCI-H1993
Second: SW 1573
The relative viability of the first is lower: 0.828 for the first, 0.954 for the second.

Compared with NCI-H838, LCLC-103H is higher in relative viability: 0.923 for the first, 1.01 for the second.

Going from NCI-H520 to NCI-H2126, the relative viability rises from 0.612 to 1.1.

Compared with EMC-BAC-2, NCI-H2085 is lower in relative viability: 1.04 for the first, 1.02 for the second.

Going from Calu-6 to HCC-366, the relative viability rises from 0.854 to 1.01.

Going from NCI-H1666 to NCI-H596, the relative viability falls from 0.843 to 0.808.

First: NCI-H2087
Second: H3255
The relative viability of the first is higher: 0.864 for the first, 0.606 for the second.

Compared with COR-L23, COR-L 105 is lower in relative viability: 0.874 for the first, 0.725 for the second.

Compared with IA-LM, LOU-NH91 is lower in relative viability: 0.75 for the first, 0.49 for the second.

Going from ChaGo-K-1 to NCI-H2405, the relative viability rises from 0.873 to 0.894.

First: HCC-44
Second: NCI-H1299
The relative viability of the first is lower: 0.894 for the first, 0.993 for the second.

First: NCI-H1792
Second: NCI-H1563
The relative viability of the first is lower: 0.753 for the first, 0.843 for the second.

same assay, conditions: first compound 0.8 µM

Compared with NCI-H727, NCI-H1650 is lower in relative viability: 0.83 for the first, 0.23 for the second.

Compared with EBC-1, NCI-H1703 is lower in relative viability: 0.57 for the first, 0.355 for the second.

First: NCI-H1993
Second: SW 1573
The relative viability of the first is higher: 1.06 for the first, 0.963 for the second.

First: NCI-H838
Second: LCLC-103H
The relative viability of the first is lower: 0.697 for the first, 1.02 for the second.

First: NCI-H520
Second: NCI-H2126
The relative viability of the first is lower: 0.496 for the first, 1.12 for the second.

Going from EMC-BAC-2 to NCI-H2085, the relative viability rises from 0.934 to 1.01.

Going from Calu-6 to HCC-366, the relative viability rises from 0.938 to 1.11.

First: NCI-H1666
Second: NCI-H2087
The relative viability of the first is lower: 0.705 for the first, 0.983 for the second.

Going from H3255 to COR-L23, the relative viability rises from 0.752 to 1.26.

First: COR-L 105
Second: IA-LM
The relative viability of the first is lower: 0.796 for the first, 0.814 for the second.

Compared with LOU-NH91, ChaGo-K-1 is higher in relative viability: 0.48 for the first, 0.726 for the second.

Going from NCI-H2405 to HCC-44, the relative viability falls from 0.998 to 0.946.

First: NCI-H1299
Second: NCI-H1792
The relative viability of the first is lower: 0.951 for the first, 0.998 for the second.

First: NCI-H1563
Second: ABC-1
The relative viability of the first is higher: 0.751 for the first, 0.308 for the second.

same assay, conditions: first compound 2.53 µM

Compared with NCI-H727, NCI-H1650 is lower in relative viability: 0.797 for the first, 0.205 for the second.

Going from EBC-1 to NCI-H1703, the relative viability falls from 0.546 to 0.186.

Going from NCI-H1993 to SW 1573, the relative viability falls from 1.25 to 1.

First: NCI-H838
Second: LCLC-103H
The relative viability of the first is lower: 0.663 for the first, 1.09 for the second.

First: NCI-H520
Second: NCI-H2126
The relative viability of the first is lower: 0.459 for the first, 1.12 for the second.

Going from EMC-BAC-2 to NCI-H2085, the relative viability falls from 1.02 to 0.963.

First: Calu-6
Second: HCC-366
The relative viability of the first is lower: 1.1 for the first, 1.12 for the second.

First: NCI-H1666
Second: NCI-H596
The relative viability of the first is lower: 0.701 for the first, 0.994 for the second.

First: NCI-H2087
Second: H3255
The relative viability of the first is higher: 0.832 for the first, 0.744 for the second.

Compared with COR-L23, COR-L 105 is lower in relative viability: 0.888 for the first, 0.807 for the second.

Going from IA-LM to LOU-NH91, the relative viability falls from 0.653 to 0.455.

Compared with ChaGo-K-1, NCI-H2405 is lower in relative viability: 1.11 for the first, 0.922 for the second.

Compared with HCC-44, NCI-H1299 is higher in relative viability: 0.921 for the first, 1 for the second.

Compared with NCI-H1792, NCI-H1563 is lower in relative viability: 0.883 for the first, 0.8 for the second.

ABC-1 gave a relative viability of 0.359.

same assay, conditions: first compound 8 µM

First: NCI-H727
Second: NCI-H1650
The relative viability of the first is higher: 1.07 for the first, 0.186 for the second.

First: EBC-1
Second: NCI-H1703
The relative viability of the first is higher: 0.688 for the first, 0.274 for the second.

Compared with NCI-H1993, SW 1573 is higher in relative viability: 0.894 for the first, 1 for the second.

Going from NCI-H838 to LCLC-103H, the relative viability rises from 0.747 to 1.15.

First: NCI-H520
Second: NCI-H2126
The relative viability of the first is lower: 0.31 for the first, 1.13 for the second.

Compared with EMC-BAC-2, NCI-H2085 is higher in relative viability: 1 for the first, 1.06 for the second.

Compared with Calu-6, HCC-366 is higher in relative viability: 0.926 for the first, 0.99 for the second.

First: NCI-H1666
Second: NCI-H596
The relative viability of the first is lower: 0.537 for the first, 0.983 for the second.

Compared with NCI-H2087, H3255 is higher in relative viability: 0.789 for the first, 0.906 for the second.

First: COR-L23
Second: COR-L 105
The relative viability of the first is higher: 0.889 for the first, 0.674 for the second.

First: IA-LM
Second: LOU-NH91
The relative viability of the first is lower: 0.405 for the first, 0.568 for the second.

First: ChaGo-K-1
Second: NCI-H2405
The relative viability of the first is lower: 0.533 for the first, 0.952 for the second.

Going from HCC-44 to NCI-H1299, the relative viability rises from 0.889 to 1.06.

Going from NCI-H1792 to NCI-H1563, the relative viability falls from 0.923 to 0.661.

Work on ABC-1 yielded a relative viability of 0.22.

Source: the supplement of paper PMC10307832
